Laboratory results from PubChem BioAssay AID602167 (The Scripps Research Institute Molecular Screening Center, 2012).
Calls of active or inactive are those of the source. No rule for the calls is given here.

The compounds below were run against transactivating tegument protein VP16 (Human herpesvirus 1), as a GAL4-VP16 activation-domain luciferase reporter (assay: GAL4-VP16 reporter repression curves – cell-based, luminescence, high throughput, SRC3 series, counter-screen for SRC3 inhibitor project, dose response (AID 602167)). Settings: VP16 transactivation luciferase reporter cells.

| SMILES | IC50 |
| --- | --- |
| CNC(=O)c1cccn(Cc2ccc(C(F)(F)F)cc2)c1=O | > 35.8 µM (inactive) |
| CC(=O)OCCN1c2ccccc2Sc2cnccc21 | 6.3 µM |
| CCOC(=O)CC(=O)CSc1nccc(-c2cccnc2)n1 | inactive |
| Nc1nccc(-c2ccc(-n3cnc4ccccc43)cc2)n1 | 7.5 µM |
| COc1ccc(CCNC(=O)c2nnn(-c3ccc4c(c3)OCCO4)c2N)cc1OC | inactive |
| COc1cc(C(=O)OCC(=O)Nc2sccc2C(N)=O)cc(OC)c1OC | > 35.9 µM (inactive) |
| CC(C)(C)c1ccc(Oc2ccc(N)cn2)cc1 | inactive |
| CCCC(=O)NC(c1ccc(Cl)cc1Cl)c1ccc2cccnc2c1O (configuration not stated) | 4.42 µM |
| Nc1nc(CCl)nc(Nc2cccc3ccccc23)n1 | inactive |
| CN1CCN(c2ccc(NC(=O)N3CCc4ccccc43)cc2)CC1 | inactive |
| COc1cc(C2c3cc4c(cc3C(OC3OC5COC(c6cccs6)OC5C(O)C3O)C3COC(=O)C23)OCO4)cc(OC)c1O (configuration not stated) | > 35.8 µM (inactive) |
| C=CCOc1ccc(/C=C2\SC(=S)N(CCC(=O)O)C2=O)cc1 | > 35.9 µM (inactive) |
| COc1ccc(C)cc1NS(=O)(=O)c1ccc(NC(=O)CN(c2cc([N+](=O)[O-])ccc2C)S(C)(=O)=O)cc1 | inactive |
| CCN(c1cccc(C)c1)c1ncnc2nc[nH]c12 | inactive |
| CCC(=O)c1ccc(O)c(CC=C(C)C)c1 | 9.84 µM |
| CN(C)c1ccc(CNC(=O)CCNS(=O)(=O)c2cc(Br)cnc2N)cc1 | 8.6 µM |
| COc1cccc(-c2nnc3sc(C4CCCCC4)nn23)c1 | 9.52 µM |
| COc1ccc(-c2nsc3c(N4CCCCC4)ncnc23)cc1 | inactive |
| Cc1cc(-c2nnc(SCC(=O)Nc3ccccc3C(F)(F)F)o2)c(C)n1-c1ccccc1 | > 35.9 µM (inactive) |
| O=C(COC(=O)c1ccc[nH]c1=O)Nc1ccc(N2CCCCC2)cc1 | > 35.9 µM (inactive) |
| O=C(NCCc1ccccc1)c1ccc2c(c1)OCCO2 | 5.83 µM |
| C=CCOn1c(C)c(C(C)=O)c2c3nonc3ccc21 | 7.3 µM |

| SMILES | IC50 |
| --- | --- |
| O=C(CCl)N(c1ccccc1)C1CCS(=O)(=O)C1 (configuration not stated) | inactive |
| CCCNC(=O)c1nnsc1S(=O)(=O)c1ccc(Cl)cc1 | inactive |
| Cc1cccc2sc(NNC(=O)c3ccc(S(=O)(=O)N4CC(C)CC(C)C4)cc3)nc12 (configuration not stated) | 7.55 µM |
| COc1cc([C@@H]2c3cc4c(cc3[C@@H](O[C@@H]3O[C@@H]5CO[C@@H](C)O[C@H]5[C@H](O)[C@H]3O)[C@H]3COC(=O)[C@H]23)OCO4)cc(OC)c1O | > 35.9 µM (inactive) |
| COc1cc2c(cc1OC)C(C)N(C(=O)c1cccc([N+](=O)[O-])c1)CC2 (configuration not stated) | 8.56 µM |
| c1ccc2c(c1)Nc1ccncc1S2 | inactive |
| COc1cc2oc(=O)cc(-c3ccc(-c4ccc(CO)cc4)cc3)c2c(OC)c1OC | 5.56 µM |
| CC(C)(C)c1cc(C(=O)N/N=C/c2ccc(O)cc2)n(-c2ccccc2)n1 | inactive |
| O=C(Nc1cccc(C(F)(F)F)c1)Nc1nnc([C@@H]2C[C@H](O)[C@@H](CO)O2)s1 | 6.98 µM |
| CCCC(=O)NC(c1ccc2c(c1)OCO2)c1cc(Cl)c2cccnc2c1O (configuration not stated) | 7.92 µM |
| Fc1ccccc1-c1csc(=Nc2cccnc2)n1CCCn1ccnc1 | 7.45 µM |
| COC(CN(C(=O)CCl)C(C(=O)NC1CCCCC1)c1ccccc1C)OC (configuration not stated) | 7.26 µM |
| CCCS(=O)(=O)Nc1ccc(Nc2c3ccccc3nc3ccccc23)c(OC)c1 | > 35.9 µM (inactive) |
| Cc1cccc(CN2CCN(C(=O)CCl)CC2)c1 | > 12 µM (inactive) |
| O=C(N/N=C/c1cc(Br)c(Br)s1)c1ccncc1 | inactive |
| O=C(NCCCn1ccnc1)c1ccc(N2CCCCCC2)c([N+](=O)[O-])c1 | inactive |
| c1cc2[nH]snc2c2nc(C3CC3)nc12 | 4.83 µM |
| Cc1ccc(C(=O)O/N=C(\N)c2ccccn2)c(Cl)c1 | inactive |
| COC(=O)c1cccc2c1-c1ccccc1/C2=N/O | 5.73 µM |
| O=C(NC1CCCCC1)C(c1cccnc1)N(C(=O)CCl)c1cccc(Cl)c1 (configuration not stated) | 6.03 µM |
| Cc1ccc(-n2c(Cl)c(Cl)nc(Cl)c2=O)cc1 | 4.07 µM |
| C/C(=N\NC(=S)Nc1cc(S(=O)(=O)N2CCOCC2)ccc1Cl)c1ccccc1F | inactive |

| SMILES | IC50 |
| --- | --- |
| COc1ccc(COC(=O)C2=C(C)NC(=O)NC2c2ccc(F)cc2)cc1 (configuration not stated) | 9.08 µM |
| O=c1[nH]c(O)c(N=Nc2ccc3c(c2)OCCO3)c(=O)[nH]1 | inactive |
| Fc1ccc(CSc2nnc(-c3ccncc3)o2)cc1 | 3.81 µM |
| CCn1ccnc1CN(C)Cc1cn[nH]c1-c1ccc(OC)c(F)c1 | 7.96 µM |
| CC(=O)c1ccc(Nc2c3c(nc4ccccc24)CCCC3)cc1 | inactive |
| S=C(Nc1ccccc1)Nc1ccc(OCc2ccc(Cl)cc2Cl)cc1 | 7.96 µM |
| O=c1[nH]c2ccccc2n1C1CCN(C(c2cccc3ccccc23)c2nnnn2-c2ccc3c(c2)OCCO3)CC1 (configuration not stated) | 7.28 µM |
| Brc1ccc2ncc3ccccc3c2c1 | inactive |
| c1ccc(-c2noc(-c3ccc4ccccc4c3)n2)nc1 | 6.07 µM |
| Cc1ccc(OCC(=O)c2cc(C)n(-c3ccccc3)c2C)c([N+](=O)[O-])n1 | inactive |
| O=C(N/N=C(\c1ccccc1)c1ccccn1)c1ccccc1Cl | 8.52 µM |
| COc1cc2[nH]c3c(Cl)ncnc3c2cc1OC | inactive |
| C=C1C(=O)[C@]23C[C@H]1CCC2[C@@]1(C)C(C[C@@H]3O)[C@](C)(C(=O)OC)CC[C@@H]1O (some centres not stated) | 5.21 µM |
| COc1cccc(CNc2ncnc3ccc(-c4c(C)noc4C)cc23)c1 | > 35.9 µM (inactive) |
| CCN(C(C)=O)c1cnc(C=NNC(N)=S)c2ccccc12 | 4.4 µM |
| O=C(CCl)N1N=C(c2ccco2)CC1c1ccco1 (configuration not stated) | > 12 µM (inactive) |
| CCOc1ccc(-c2cc(C)n3nc(C(N)=O)cc3n2)cc1 | inactive |
| NNC(=O)c1cc2ccccc2cc1O | inactive |
| COc1cc(NS(C)(=O)=O)ccc1Nc1c2ccccc2nc2ccccc12 | > 35.9 µM (inactive) |
| O=C(OCc1ccccc1)c1ccc(NCc2cc(O)ccc2O)cc1 | 5.95 µM |
| Cc1ccc2nc(C(F)(F)F)c(C#N)c(N)c2c1 | inactive |
| Cc1cc(/C=C2\Cc3ccccc3C2=O)c(C)n1-c1ccccc1 | inactive |

| SMILES | IC50 |
| --- | --- |
| NC(=O)c1cc(Sc2ccccc2)nc2ccccc12 | inactive |
| Cc1cc(C(=O)COC(=O)C2=COCCO2)c(C)n1-c1ccccc1 | > 12 µM (inactive) |
| COc1cccc(NC(=O)CSc2nnc(-c3cc(C)n(-c4ccccc4)c3C)o2)c1 | 2.4 µM |
| Cc1cccc(NC(=O)c2cc(Cl)ccc2[N+](=O)[O-])c1 | inactive |
| CCOc1ccc(/C=C2\SC(=S)N(CCC(=O)O)C2=O)cc1 | > 35.9 µM (inactive) |
| CN(C)S(=O)(=O)c1ccc(N2CCN(S(=O)(=O)c3ccc(F)cc3)CC2)c(Cl)c1 | 9.39 µM |
| CCOc1ccc(/C=C2\SC(=S)N(CCCC(=O)NCCCN3CCOCC3)C2=O)cc1 | inactive |
| CCOc1ccc(CC(=O)Nc2ccc(NC(=O)c3ccco3)cc2)cc1OCC | 7.73 µM |
| COc1ccc(/C=C2/SC(=S)N(CCC(=O)O)C2=O)cc1 | > 35.9 µM (inactive) |
| Nc1ncccc1C(=O)OCC(=O)N1CCN(S(=O)(=O)c2ccc(Cl)cc2)CC1 | 9.87 µM |
| Cc1nnc(SC(=O)N2c3ccccc3Sc3ccccc32)s1 | 7.54 µM |
| Cc1ncc(CO)c(/C=N/NC(=O)c2cc3c(s2)CCCC3)c1O | 6.04 µM |
| CN(C)c1ccc(C(=S)Nc2ccccc2)cc1 | > 35.9 µM (inactive) |
| CCCC(=O)NC(c1ccc(Cl)cc1)c1ccc2cccnc2c1O (configuration not stated) | 4.4 µM |
| COc1ccc2[nH]c(=O)c(CN(CCN3CCCC3)C(=O)Nc3ccccc3Cl)cc2c1 | inactive |
| O=[N+]([O-])c1nn(-c2ccc3c(c2)OCCO3)n(O)c1=Nc1ccccc1 | 9.18 µM |
| COc1cccc(F)c1C(C[N+](=O)[O-])c1c(N)n(C)c(=O)n(C)c1=O (configuration not stated) | 5.01 µM |
| Cc1ccc(N=c2c([N+](=O)[O-])nn(-c3ccc4c(c3)OCCO4)n2O)cc1F | inactive |
| CC[C@@]1(O)C(=O)OCc2c1cc1n(c2=O)Cc2cc3c(NC(=O)CN)cccc3nc2-1 | > 35.9 µM (inactive) |
| CS(=O)(=O)c1ccc(Sc2nc3ccccc3s2)c([N+](=O)[O-])c1 | > 35.9 µM (inactive) |
| NS(=O)(=O)c1ccc(Sc2nc3ccccc3s2)c([N+](=O)[O-])c1 | 7.26 µM |
| CN(Cc1cnc2nc(N)nc(N)c2n1)c1ccc(C(=O)N[C@@H](CCC(=O)O)C(=O)O)cc1 | > 35.9 µM (inactive) |

| SMILES | IC50 |
| --- | --- |
| COc1ccc(-n2cnc3c(sc4nccc(N(C)C)c43)c2=O)cc1 | inactive |
| Cc1ccc(N=Nc2ccc3ccccc3c2O)cc1 | inactive |
| NC(=S)N/N=C1\CCSc2ccc(Cl)cc21 | inactive |
| O=c1[nH]c2ccccc2n1C1CCN(C(c2cc3ccccc3o2)c2nnnn2Cc2ccccc2)CC1 (configuration not stated) | inactive |
| CCn1nc(/C=C/c2ccccc2)nc2c(=O)n(C)c(=O)nc1-2 | 5.14 µM |
| Cc1cccc(Oc2sc(C(=O)c3ccccc3)c(N)c2C#N)c1 | inactive |
| O=C(CNc1cccc([N+](=O)[O-])c1)N/N=C/c1ccc([N+](=O)[O-])o1 | inactive |
| O=c1[nH]c2ccccc2n1C1CCN(C(c2ccccc2)c2nnnn2Cc2ccccc2)CC1 (configuration not stated) | inactive |
| Cc1ccc(C(=O)Nc2cnc3ccccc3c2)cc1 | 8.49 µM |
| Cc1c(CC(=O)NCCCC(=O)O)c(=O)oc2cc3c(cc12)CCC(C)(C)O3 | inactive |
| Cc1c(Cl)cccc1NC(=O)Nc1ccccc1C(N)=O | > 35.9 µM (inactive) |
| O=S(=O)(/C(=C\c1ccc(C(F)(F)F)cc1)c1nc2ccccc2[nH]1)c1ccccc1 | 3.93 µM |
| C=CCn1c(O)c(C(C)=NCc2cc(OC)cc(OC)c2)c(=O)[nH]c1=O | inactive |
| Cc1nc([N+](=O)[O-])c(Sc2nc3ccccc3n2C)n1Cc1ccccc1 | inactive |
| CC(C)N(c1ccccc1)c1ccc(NC(=O)CCl)cc1 | inactive |
| CCc1ccc(/C=C2\SC(=S)N(CCCC(=O)NCCCN3CCOCC3)C2=O)cc1 | inactive |
| CN[C@H]1CCc2cc(OC)c(OC)c(OC)c2-c2ccc(OC)c(=O)cc21 | > 35.9 µM (inactive) |
| C(=NNc1ccc2ccccc2n1)c1ccccn1 | inactive |
| Cc1ccc(N(CCC#N)C(=O)CCl)cc1C | > 12 µM (inactive) |
